Assay results published in patent US20230210825A1, “METHODS AND COMPOSITIONS FOR TREATING SUBJECTS WITH METABOLIC DISORDERS AND CORONAVIRUS INFECTIONS” (CIRIUS THERAPEUTICS, INC., priority 2020, published 2023).

Columns and labels:
[1] = biological target: T1, organic anion transporter 3 (OAT3) (Homo sapiens, UniProt Q8TCC7); experiment: OAT3 inhibition
T1 sequence (Q8TCC7 1-542): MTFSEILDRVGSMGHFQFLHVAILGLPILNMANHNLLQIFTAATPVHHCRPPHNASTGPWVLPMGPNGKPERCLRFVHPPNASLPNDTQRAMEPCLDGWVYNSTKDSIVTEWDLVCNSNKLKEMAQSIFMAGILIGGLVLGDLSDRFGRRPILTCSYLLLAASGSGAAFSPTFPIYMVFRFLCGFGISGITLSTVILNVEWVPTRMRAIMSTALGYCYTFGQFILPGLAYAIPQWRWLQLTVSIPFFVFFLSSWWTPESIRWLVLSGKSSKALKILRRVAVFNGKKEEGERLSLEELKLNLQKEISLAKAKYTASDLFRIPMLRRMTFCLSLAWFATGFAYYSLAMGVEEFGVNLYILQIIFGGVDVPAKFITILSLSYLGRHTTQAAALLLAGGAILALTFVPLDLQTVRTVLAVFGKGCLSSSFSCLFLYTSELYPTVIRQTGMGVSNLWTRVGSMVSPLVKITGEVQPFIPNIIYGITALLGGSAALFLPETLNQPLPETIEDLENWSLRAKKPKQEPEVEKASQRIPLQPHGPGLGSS

PPARγ = biological target: T2, PPARγ (Homo sapiens, UniProt P37231); experiment: Relative binding affinity for PPARγ (FIG. 1); conditions: FIG. 1, relative binding affinity
T2 sequence (P37231 1-505): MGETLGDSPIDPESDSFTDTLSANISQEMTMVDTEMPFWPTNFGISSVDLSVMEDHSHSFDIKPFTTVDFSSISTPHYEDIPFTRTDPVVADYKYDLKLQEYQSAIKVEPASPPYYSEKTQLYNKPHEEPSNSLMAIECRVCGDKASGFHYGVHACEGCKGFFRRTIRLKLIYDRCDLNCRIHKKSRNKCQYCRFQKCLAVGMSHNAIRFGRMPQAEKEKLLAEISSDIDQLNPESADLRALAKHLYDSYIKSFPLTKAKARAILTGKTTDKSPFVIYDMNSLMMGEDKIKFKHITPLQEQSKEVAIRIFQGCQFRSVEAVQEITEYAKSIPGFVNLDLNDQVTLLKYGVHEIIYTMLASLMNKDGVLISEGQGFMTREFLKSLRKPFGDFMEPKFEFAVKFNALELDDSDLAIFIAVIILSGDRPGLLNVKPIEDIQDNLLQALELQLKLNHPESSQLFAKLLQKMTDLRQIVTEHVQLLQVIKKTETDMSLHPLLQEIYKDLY

[2] = biological target: T3, mitochondrial pyruvate carrier (MPC) (Homo sapiens, UniProt O95563+Q9Y5U8); experiment: Relative binding affinity for the MPC (FIG. 2)
T3 sequence (Q9Y5U8 1-109): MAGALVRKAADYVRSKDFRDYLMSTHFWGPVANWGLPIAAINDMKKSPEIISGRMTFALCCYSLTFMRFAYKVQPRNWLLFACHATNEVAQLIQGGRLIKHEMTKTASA
T3 sequence (O95563 1-127): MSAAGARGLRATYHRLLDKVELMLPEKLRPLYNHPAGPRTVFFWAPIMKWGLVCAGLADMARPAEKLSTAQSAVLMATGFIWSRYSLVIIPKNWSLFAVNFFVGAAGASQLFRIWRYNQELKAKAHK

CYP2C8 = CYP2C8 (Homo sapiens, UniProt P10632)
[3] = metabolite share of combined exposure after MSDC-0602
[4] = Earlier phase 2 trials: adiponectin at 28 days; set-up: species or system human; conditions: in vivo
[5] = biological target: multidrug resistance protein 1 (MDR1) (Homo sapiens, UniProt P08183); experiment: MDR1 inhibition
[6] = test system: mouse model of a metabolic disorder; conditions: reported earlier; effects require MPC expression in hepatocytes; cited from earlier work
[7] = biological target: T4, breast cancer-related protein (BCRP) (Homo sapiens, UniProt Q9UNQ0); experiment: BCRP inhibition; conditions: not told
T4 sequence (Q9UNQ0 1-655): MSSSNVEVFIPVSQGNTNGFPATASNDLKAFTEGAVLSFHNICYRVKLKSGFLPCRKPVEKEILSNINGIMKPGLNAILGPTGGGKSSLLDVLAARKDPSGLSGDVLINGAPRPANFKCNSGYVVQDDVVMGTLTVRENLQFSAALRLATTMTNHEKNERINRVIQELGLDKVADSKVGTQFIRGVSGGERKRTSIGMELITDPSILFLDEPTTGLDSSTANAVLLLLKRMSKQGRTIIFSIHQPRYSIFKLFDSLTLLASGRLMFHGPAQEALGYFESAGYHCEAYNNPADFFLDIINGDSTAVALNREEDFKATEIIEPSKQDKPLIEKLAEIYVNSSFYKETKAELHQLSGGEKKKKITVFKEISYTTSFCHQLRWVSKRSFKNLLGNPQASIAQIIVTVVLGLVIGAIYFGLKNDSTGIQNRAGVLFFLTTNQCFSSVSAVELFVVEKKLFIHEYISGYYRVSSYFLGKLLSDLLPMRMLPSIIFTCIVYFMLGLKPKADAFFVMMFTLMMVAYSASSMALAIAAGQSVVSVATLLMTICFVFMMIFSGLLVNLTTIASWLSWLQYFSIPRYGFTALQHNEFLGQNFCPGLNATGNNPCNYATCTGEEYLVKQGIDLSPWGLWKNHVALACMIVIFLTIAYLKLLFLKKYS

Sequence of CYP2C8 (P10632 whole entry): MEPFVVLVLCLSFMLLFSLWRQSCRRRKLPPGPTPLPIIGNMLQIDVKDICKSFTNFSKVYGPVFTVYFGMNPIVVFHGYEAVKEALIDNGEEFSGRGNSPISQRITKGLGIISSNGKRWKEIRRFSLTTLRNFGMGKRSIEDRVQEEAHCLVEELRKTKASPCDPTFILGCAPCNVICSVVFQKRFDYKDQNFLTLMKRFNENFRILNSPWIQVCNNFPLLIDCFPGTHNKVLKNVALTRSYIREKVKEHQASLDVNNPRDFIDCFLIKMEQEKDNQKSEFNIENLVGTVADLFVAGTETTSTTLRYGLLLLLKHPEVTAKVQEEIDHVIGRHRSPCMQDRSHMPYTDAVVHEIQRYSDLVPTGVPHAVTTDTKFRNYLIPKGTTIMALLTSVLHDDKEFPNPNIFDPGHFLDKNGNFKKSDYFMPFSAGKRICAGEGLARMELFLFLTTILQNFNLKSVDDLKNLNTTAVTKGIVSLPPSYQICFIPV

Q: What does the source list for `COc1cccc(C(O)COc2ccc(CC3SC(=O)NC3=O)cc2)c1` (centres unmarked) [MSDC-0597]?
A: inhibition of organic anion transporter 3 (OAT3) [1]: inhibitors; reduction in binding affinity for PPARγ compared to pioglitazone (PPARγ): more than fifty-fold; binding to the MPC [2]: maintain, and in some cases improve, binding to the MPC; inhibition of CYP2C8 (CYP2C8): weak inhibitor; share of the combined exposure [3]: more than 90%

Q: Which “increase in adiponectin levels” value [4] does the source give for `COc1cccc(C(=O)COc2ccc(CC3SC(=O)NC3=O)cc2)c1` (centres unmarked) [MSDC-0602] here?
A: Its value is 146%.

Q: And the “inhibition of organic anion transporter 3 (OAT3)” value [1]?
A: Its value is “inhibitors”.

Q: What about the “binding to the MPC” value [2] of the same compound?
A: Its value is “maintain, and in some cases improve, binding to the MPC”.

Q: And the “inhibition of MDR1” value [5]?
A: The value was “inhibitor”.

Q: And the “damage caused to the liver” value [6]?
A: The value was “prevents and reverses damage caused to the liver”.

Q: What about the “inhibition of BCRP” value [7] of the same compound?
A: Its value is “inhibitor”.
